“And” between values parts separate entries of the source, which are not always exact repeats. Equal values may be shown once.
What was measured:
Format in all cases: in vivo
[1] = test system: TRZAS, Triticum aestivum (spring wheat); test: Greenhouse postemergence phytotoxicity on crop, visual injury 20-22 d after application
Source text: (§1) Seeds of the desired test plant species were planted in a 90:10% v/v (volume/volume) mixture of PRO-MIX® BX (Premier Tech Horticulture, Quakertown, PA, USA) and PROFILE® GREENS GRADE™ (Profile Products LLC, Buffalo Grove, IL, USA) planting mixture, which typically has a pH of 5.2 to 6.2 and an organic matter content of at least 50 percent, in plastic pots with a surface area of 103.2 square centimeters (cm^2). In some aspects, to help ensure good germination and healthy plants, a fungicide treatment and/or other chemical or physical treatment was applied. The plants were grown for 7-36 days (d) in a greenhouse with an approximate 14-hour (h) photoperiod which was maintained at about 23° C. during the day and 22° C. during the night. Nutrients and water were added on a regular basis and supplemental lighting was provided with overhead metal halide 1000-Watt lamps as necessary. The plants were employed for testing when they reached the second or third true leaf stage.
(§2) Emulsifiable concentrates of each of each pyridine carboxylate herbicide (Compound A or Compound B) were prepared at 100 grams acid equivalent per liter (g ae/L). The emulsifiable concentrates also included a safener, cloquintocet mexyl, at 120 grams active ingredient per liter (g ai/L). An aliquot of each emulsifiable concentrate was placed in a 25 mL glass vial and diluted with an aqueous mixture of 1.25% (v/v) ACTIROB® B esterified rapeseed oil (Bayer Crop Science, Research Triangle Park, NC, USA) or MSO® Concentrate with LECI-TECH® methylated soybean oil (Loveland Products, Loveland, CO, USA) to obtain concentrated stock solutions at the highest application rate for each herbicide, based upon a 12 milliliter (mL) application volume at a rate of 187 liters per hectare (L/ha). The concentrated stock solutions were further diluted with an aqueous mixture of 1.25% v/v ACTIROB® B or MSO® Concentrate with LECI-TECH® to obtain stock solutions at reduced application rates for each herbicide. Spray solutions of the herbicide combinations (Compound A or Compound B plus HPPD inhibitor herbicide) were prepared by adding weighed amounts or aliquots of the HPPD inhibitor herbicides to the stock solutions of Compound A or Compound B to form 12-mL spray solutions in two-way combinations.
(§3) The spray solutions were applied to the plant material with an overhead Mandel track sprayer equipped with 8002E nozzles calibrated to deliver 187 L/ha over an application area of 0.503 square meters (m^2) at a spray height of 18 inches (43 centimeters (cm)) above the average plant canopy. Control plants were sprayed in the same manner with the solvent blank. All pyridine carboxylate herbicide (component a) application rates are given as “g ae/ha” and all HPPD inhibitor herbicide (component b) application rates are given as “g ai/ha.”
(§4) The treated plants and control plants were placed in a greenhouse as described above and watered by sub-irrigation to prevent wash-off of the test compounds. After 20-22 d, the condition of the test plants as compared with that of the control plants was determined visually and scored on a scale of 0 to 100 percent where 0 corresponds to no injury and 100 corresponds to complete kill.

[2] = test system: HORVS, Hordeum vulgare (spring barley); test: as above
Source text: as §1, §2, §3, §4

[3] = test system: LOLMU, Lolium multiflorum (Italian ryegrass); test: Greenhouse postemergence herbicidal effect, visual injury 20-22 d after application
Source text: as §1, §2, §3, §4

[4] = test system: CHEAL, Chenopodium album L. (common lambsquarters); test: as above
Source text: as §1, §2, §3, §4

[5] = test system: ECHCG, Echinochloa crus-galli (barnyard grass); test: as above
Source text: as §1, §2, §3, §4

[6] = test system: IPOHE, Ipomoea hederacea (ivyleaf morningglory); test: as above
Source text: as §1, §2, §3, §4

[7] = test system: HELAN, Helianthus annuus (common sunflower); test: as above
Source text: as §1, §2, §3, §4

[8] = test system: BRSNN, Brassica napus (spring rape); test: as above
Source text: as §1, §2, §3, §4

[9] = test system: POLCO, Polygonum convolvulus (wild buckwheat); test: as above
Source text: as §1, §2, §3, §4

[10] = test system: VIOTR, Viola tricolor (wild pansy); test: as above
Source text: as §1, §2, §3, §4

[11] = test system: EPHHL, Euphorbia heterophylla (poinsettia); test: as above
Source text: as §1, §2, §3, §4

[12] = test system: STEME, Stellaria media (chickweed); test: as above
Source text: as §1, §2, §3, §4

[13] = test system: DIGSA, Digitaria sanguinalis (large crabgrass); test: as above
Source text: as §1, §2, §3, §4

[14] = test system: SETFA, Setaria faberi (giant foxtail); test: as above
Source text: as §1, §2, §3, §4

[15] = test system: SINAR, Sinapis arvensis (wild mustard); test: as above
Source text: as §1, §2, §3, §4

[16] = test system: MATCH, Matricaria chamomilla (wild chamomile); test: as above
Source text: as §1, §2, §3, §4

[17] = test system: AMARE, Amaranthus retroflexus (pigweed); test: as above
Source text: as §1, §2, §3, §4

[18] = test system: BRSNW, Brassica napus (winter rape); test: as above
Source text: as §1, §2, §3, §4

[19] = test system: ABUTH, Abutilon theophrasti (velvetleaf); test: as above
Source text: as §1, §2, §3, §4

[20] = test system: KCHSC, Kochia scoparia (kochia); test: as above; conditions: Bassia scoparia, post-emergence, KCHSC, read-out: % visual injury Obs
Source text: as §1, §2, §3, §4

[21] = test system: SASKR, Salsola kali (Russian thistle); test: as above
Source text: as §1, §2, §3, §4

[22] = test system: CIRAR, Cirsium arvense (Canadian thistle); test: as above
Source text: as §1, §2, §3, §4

[23] = Mesotrione 35 g ai/ha (Table 8)

N#CCOC(=O)c1nc(-c2ccc3cc[nH]c3c2F)c(F)c(N)c1Cl [Compound A, cyanomethyl 4-amino-3-chloro-5-fluoro-6-(7-fluoro-1H-indol-6-yl)pyridine-2-carboxylate]
% visual injury Obs ([1]; Compound A 7.5 g ae/ha): 0%
% visual injury Obs ([1]; Compound A 10 g ae/ha): 0%
% visual injury Obs ([2]; Compound A 7.5 g ae/ha): 8% and 0%
% visual injury Obs ([2]; Compound A 10 g ae/ha): 0%
% visual injury Obs ([3]; Compound A 7.5 g ae/ha): 8%
% visual injury Obs ([3]; Compound A 10 g ae/ha): 3%
% visual injury Obs ([4]; Compound A 7.5 g ae/ha): 75% and 70%
% visual injury Obs ([4]; Compound A 10 g ae/ha): 80% and 78%
% visual injury Obs ([5]; Compound A 7.5 g ae/ha): 80%
% visual injury Obs ([5]; Compound A 10 g ae/ha): 88%
% visual injury Obs ([6]; Compound A 7.5 g ae/ha): 5%
% visual injury Obs ([6]; Compound A 10 g ae/ha): 0%
% visual injury Obs ([7]; Compound A 7.5 g ae/ha): 83%
% visual injury Obs ([7]; Compound A 10 g ae/ha): 88%
% visual injury Obs ([8]; Compound A 10 g ae/ha): 45% and 60%
% visual injury Obs ([9]; Compound A 10 g ae/ha): 70% and 43%
% visual injury Obs ([10]; Compound A 7.5 g ae/ha): 3%
% visual injury Obs ([10]; Compound A 10 g ae/ha): 3%
% visual injury Obs ([11]; Compound A 7.5 g ae/ha): 91%
% visual injury Obs ([11]; Compound A 10 g ae/ha): 83%
% visual injury Obs ([12]; Compound A 7.5 g ae/ha): 90%
% visual injury Obs ([12]; Compound A 10 g ae/ha): 85%
% visual injury Obs ([13]; Compound A 7.5 g ae/ha): 13%
% visual injury Obs ([13]; Compound A 10 g ae/ha): 25%
% visual injury Obs ([14]; Compound A 7.5 g ae/ha): 60%
% visual injury Obs ([14]; Compound A 10 g ae/ha): 78%
% visual injury Obs ([15]; Compound A 7.5 g ae/ha): 83% and 85%
% visual injury Obs ([15]; Compound A 10 g ae/ha): 88%
% visual injury Obs ([16]; Compound A 7.5 g ae/ha): 10% and 18%
% visual injury Obs ([16]; Compound A 10 g ae/ha): 20% and 30%
% visual injury Obs ([17]; Compound A 7.5 g ae/ha): 80% and 90% and 70%
% visual injury Obs ([17]; Compound A 10 g ae/ha): 85% and 90%
% visual injury Obs ([18]; Compound A 7.5 g ae/ha): 35% and 63%
% visual injury Obs ([18]; Compound A 10 g ae/ha): 40% and 68%
% visual injury Obs ([19]; Compound A 7.5 g ae/ha): 40%
% visual injury Obs ([19]; Compound A 10 g ae/ha): 48%
pest or weed control at 7.5 g/ha ([20]; Compound A 7.5 g ae/ha): 63%
pest or weed control at 10 g/ha ([20]; Compound A 10 g ae/ha): 70%
% visual injury Obs ([21]; Compound A 7.5 g ae/ha): 60%
% visual injury Obs ([21]; Compound A 10 g ae/ha): 63%

CS(=O)(=O)c1cc(C(F)(F)F)ccc1C(=O)c1cnoc1C1CC1 [Isoxaflutole, (5-cyclopropyl-4-isoxazolyl)[2-(methylsulfonyl)-4-(trifluoromethyl)phenyl]methanone]
% visual injury Obs ([22]; Isoxaflutole 60 g ai/ha): 70%
% visual injury Obs ([6]; Isoxaflutole 60 g ai/ha): 38%
% visual injury Obs ([7]; Isoxaflutole 60 g ai/ha): 85%
% visual injury Obs ([9]; Isoxaflutole 60 g ai/ha): 0%
% visual injury Obs ([10]; Isoxaflutole 60 g ai/ha): 25%
% visual injury Obs ([17]; Isoxaflutole 60 g ai/ha): 53%
% visual injury Obs ([19]; Isoxaflutole 60 g ai/ha): 58%
pest or weed control at 60 g/ha ([20]; Isoxaflutole 60 g ai/ha): 38%

CS(=O)(=O)c1ccc(C(=O)C2=C(Sc3ccccc3)C3CCC(C3)C2=O)c(Cl)c1 (stereo not drawn) [Benzobicyclon, 3-[2-chloro-4-(methylsulfonyl)benzoyl]-4-(phenylthio)bicyclo[3.2.1]oct-3-en-2-one]
% visual injury Obs ([3]; Benzobicyclon 50 g ai/ha): 0%
% visual injury Obs ([5]; Benzobicyclon 50 g ai/ha): 0%
% visual injury Obs ([8]; Benzobicyclon 50 g ai/ha): 8%
% visual injury Obs ([12]; Benzobicyclon 50 g ai/ha): 28%
% visual injury Obs ([13]; Benzobicyclon 50 g ai/ha): 10%
% visual injury Obs ([14]; Benzobicyclon 50 g ai/ha): 0%
pest or weed control at 50 g/ha ([20]; Benzobicyclon 50 g ai/ha): 0%

CS(=O)(=O)c1ccc(C(=O)C2C(=O)CCCC2=O)c([N+](=O)[O-])c1 [Mesotrione, 2-[4-(methylsulfonyl)-2-nitrobenzoyl]-1,3-cyclohexanedione]
% visual injury Obs ([22]; Mesotrione 35 g ai/ha): 84%
% visual injury Obs [22, 23]: 73%
% visual injury Obs ([7]; Mesotrione 35 g ai/ha): 90%
% visual injury Obs ([9]; Mesotrione 35 g ai/ha): 75%
% visual injury Obs ([10]; Mesotrione 35 g ai/ha): 75%
% visual injury Obs [10, 23]: 78%
% visual injury Obs ([11]; Mesotrione 35 g ai/ha): 100%
% visual injury Obs ([17]; Mesotrione 35 g ai/ha): 90%
% visual injury Obs ([19]; Mesotrione 35 g ai/ha): 99%
% visual injury Obs [19, 23]: 85%
pest or weed control at 35 g/ha ([20]; Mesotrione 35 g ai/ha): 35%

Cc1ccc(S(=O)(=O)Oc2c(C(=O)c3ccc(Cl)cc3Cl)c(C)nn2C)cc1 [Pyrazolynate, (2,4-dichlorophenyl) [1,3-dimethyl-5-[[(4-methylphenyl)sulfonyl]oxy]-1H-pyrazol-4-yl]methanone]
% visual injury Obs ([4]; Pyrazolynate 225 g ai/ha): 5%
% visual injury Obs ([22]; Pyrazolynate 225 g ai/ha): 0%
% visual injury Obs ([9]; Pyrazolynate 225 g ai/ha): 5%
% visual injury Obs ([15]; Pyrazolynate 225 g ai/ha): 5%
% visual injury Obs ([16]; Pyrazolynate 225 g ai/ha): 0%
% visual injury Obs ([17]; Pyrazolynate 225 g ai/ha): 10%
% visual injury Obs ([18]; Pyrazolynate 225 g ai/ha): 0%
pest or weed control at 225 g/ha ([20]; Pyrazolynate 225 g ai/ha): 0%
% visual injury Obs ([21]; Pyrazolynate 225 g ai/ha): 0%
